Source: patent US20220000941A1, “MINERAL ELEMENTS COMPRISING HAFNIA ALVEI COMPOSITIONS” (TARGEDYS, priority 2019, published 2022)

What was measured:
Hafnia alvei 4597 [1] = test: Turbidity of Hafnia alvei culture media by optical densitometry (OD at 640 nm); assay type: cell-based; details: mineral source in LB medium, monitored during 48 hours
Description: The concentration of the minerals were based on their estimated concentration in […] (typical glass of water). However, in view of observing the Hafnia alvei strain development, the zinc and chrome sources were solubilized in a Luria Browth medium (LB). The composition of LB is as follows: Tryptone 10 g/L, yeast extract 5 g/L (Biokar Diagnostic®) and NaCl 0.5 g/L (Fluka®).
Hafnia alvei 4597 was incubated with Test medial-6 of example 1 and the turbidity of the culture media was monitored during 48 hours by means of optical densitometry (OD at 640 nm).
(§1) The development of Hafnia alvei in this new medium was monitored by optical densitometry and flow cytometry. LB medium with no added zinc or chrome was used as a control.

Hafnia alvei 4597 [2] = test: Flow cytometry of cell integrity (propidium iodide and Syto 24), intact cells; assay type: cell-based; details: zinc comprising media, flow cytometry at 24 h
From the text: Samples of the culture media 1-6 were further assessed for the cell integrity by means of flow cytometry using as markers propidium iodide and Syto® 24. The flow cytometry measured the number of intact cells opposed to the population of cells whose cellular membrane integrity had been compromised.
as §1

| SMILES | turbidity of the culture medium (OD at 640 nm) compared to control (LB) medium (Hafnia alvei 4597 [1]) | development inhibition compared to the control medium (Hafnia alvei 4597 [2]) |
| --- | --- | --- |
| O=C([O-])c1ccccn1.O=C([O-])c1ccccn1.O=C([O-])c1ccccn1.[Cr+3] [Chromium picolinate, chromium (3+); pyridine-2-carboxylate] | same turbidity as the control | – |
| NCC(=O)[O-].NCC(=O)[O-].[Zn+2] [Zinc bisglycinate, zinc; 2-aminoacetate] | – | no significant development inhibition |
